Data on eleven compounds can be found in ChEMBL document CHEMBL5729557, “5-membered heteroaryl carboxamide compounds for treatment of HBV” (2023).

The structures appear in SMILES notation. Bounds are passed on as bounds.

This assay can be described thus: Assay Measuring Activity of Test Compounds on Viral Production from HepAD38 Cells: HepAD38 cells grown in a T-150 flask (Corning, cat #: 430825) with Growth Medium (DMEM/F12 (1:1) (Hyclone, cat #: SH30023.02), 1× Pen/Strep (Invitrogen, cat #: 15140-122), 10% FBS (Tissue Culture Biologics, cat #: 101), 250 μg/mL G418 (Alfa Aesar, cat #: J62671), 1 μg/mL Tetracycline (Teknova, cat #: T3320)) were detached with 0.25% trypsin-EDTA to (Invitrogen, cat #: 25200-056). Tetracycline-free treatment medium (15 mL DMEM/F12 (1:1) 1× Pen/step, with 2% FBS, Tet-system approved (Clontech, cat #: 631106) were then added to mix, transferred into a 50 ml conical tube (Falcon, cat #: 21008-918,) and spun at 1300 rpm for 5 min. Pelleted cells were then re-suspended/washed with 50 mL of 1×DPBS (Invitrogen, cat #: 14190-136) 2 times and 50 mL treatment medium twice. HepAD38 cells were then re-suspended with 10 mL of treatment medium, syringed and counted. Wells of 96-well clear bottom TC plate (Corning, cat #: 3904,) were seeded at 50,000 cells/well in 180 μL of treatment medium, and 20 μL of either 10% DMSO (Sigma, cat #: D4540) as controls or a 10× solution of test compounds in 10% DMSO in treatment media was added for a final compound concentration starting at 10 μM, and plates were incubated in 5% CO2 incubator at 37° C. for 5 days.Subsequently viral load production was assayed by quantitative PCR (qPCR) of the HBV core sequence. PCR reaction mixture containing forward primers HBV-f 5′-CTGTGCCTTGGGTGGCTTT-3′ (IDT DNA), Reverse primers HBV-r 5′-[…]-3′ (IDT DNA), Fluorescent TaqMan™ Probes HBV-probe 5′-FAM/AGCTCCAAA/ZEN/[…]/3IABkFQ-3′ (IDT DNA), 10 μL/well of PerfeCTa® qPCR ToughMix® (Quanta Biosciences, Cat #: 95114-05K), and 6 μL/well of DEPC water (Alfa Aesar, cat #: J62087) was prepared. […] of supernatant was added to 16 μL of the reaction mixture in a qPCR plate (Applied Biosytems, Cat #: 4309849), sealed with a film (Applied Biosystems, Cat #: 4311971), centrifuged for a few seconds, and subsequently run on an Applied Biosystems VIIA7. The PCR mixture was incubated at 45° C. for 5 min, then 95° C. for 10 min, followed by 40 cycles of 10 seconds at 95° C. and 20 seconds at 60° C. Viral load was quantified against known HBV DNA standards by using ViiA™ 7 Software. Viral load in the supernatant from wells with treated cells were compared against viral load in supernatant from DMSO control wells (>3 per plate). Cell viability assay was performed with CellTiter-Glo Luminescent Cell Viability Assay (Promega, cat #: G7573) with modification. Mixed appropriate amount of CellTiter-Glo (CTG) 1×DPBS in a 1:1 ratio, added 100 uL of the mixture to each well followed completely removal of all supernatant in each well without touching cell surface. Incubated the plate at room temperature for 10 min on an orbital shaker, and then read the plate with a plate reader (TECAN M1000 or Envision). Conditions: HePAD38. On the technique in general: In qPCR the cycle at which signal appears reflects the starting amount.
The EC50 is the concentration needed to bring the measured effect to its halfway point. Regarding `CCC1OCC2(CC3C[C@H](c4nn(C)c(N)c4C(=O)Nc4ccc(F)c(Cl)c4)C[C@@H]3C2)O1` (stereo partly specified), the EC50 was < 100 nM. With `Cn1nc(C2CC3CC(O)(C(C)(C)O)CC3C2)c(C(=O)Nc2ccc(F)c(Cl)c2)c1N` (stereo unspecified), the EC50 was < 100 nM. For the compound `COC1CC2CC(c3nn(C)c(N)c3C(=O)Nc3ccc(F)c(Cl)c3)CC2C1` (stereo unspecified), the concentration for a half-maximal effect (EC50) is < 100 nM. The same measure for `Cn1nc(C2CC3CC4(CC3C2)OCCO4)c(C(=O)Nc2ccc(F)c(Cl)c2)c1N` (stereo unspecified): < 100 nM. Under `Cn1nc(C2CC3CC(N4CCNC4=O)CC3C2)c(C(=O)Nc2ccc(F)c(Cl)c2)c1N` (stereo unspecified) stands < 100 nM. Consider `CSC1CC2CC(c3nn(C)c(N)c3C(=O)Nc3ccc(F)c(Cl)c3)CC2C1` (stereo unspecified), for which the EC50 was < 100 nM. The same measure for `Cn1nc(C2CC3CC(n4cccn4)CC3C2)c(C(=O)Nc2ccc(F)c(Cl)c2)c1N` (stereo unspecified): < 100 nM.

Turning to `COc1cc(-c2cn(C)cn2)ccc1[C@@H]1CC[C@@H](c2nn(C)c(N)c2C(=O)Nc2ccc(F)c(Cl)c2)C1`, the EC50 is < 100 nM. With `CC(=O)N1CC2CC(c3nn(C)c(N)c3C(=O)Nc3ccc(F)c(Cl)c3)CC2C1` (stereo unspecified), the EC50 is < 100 nM. The same measure for `Cn1nc([C@H]2C[C@H](c3ccccc3)C2)c(C(=O)Nc2ccc(F)c(Cl)c2)c1N`: “in the range around 300 nM”. Turning to `Cn1nc([C@@H]2CC3CC(O)(CS(=O)(=O)CCO)C[C@H]3C2)c(C(=O)Nc2ccc(F)c(Cl)c2)c1N` (stereo partly specified), the concentration giving a half-maximal response (EC50) was < 100 nM.
